Experimental findings from patent US10689354B2, “Aminoazole derivative” (Teijin Pharma Limited, priority 2015, dated 2020) are described below.

The target in one assay is T1, human androgen receptor (Homo sapiens, UniProt P10275).
T1 construct: expressed in transfected cells; host or cells: HEK293
T1 sequence (P10275 1-920): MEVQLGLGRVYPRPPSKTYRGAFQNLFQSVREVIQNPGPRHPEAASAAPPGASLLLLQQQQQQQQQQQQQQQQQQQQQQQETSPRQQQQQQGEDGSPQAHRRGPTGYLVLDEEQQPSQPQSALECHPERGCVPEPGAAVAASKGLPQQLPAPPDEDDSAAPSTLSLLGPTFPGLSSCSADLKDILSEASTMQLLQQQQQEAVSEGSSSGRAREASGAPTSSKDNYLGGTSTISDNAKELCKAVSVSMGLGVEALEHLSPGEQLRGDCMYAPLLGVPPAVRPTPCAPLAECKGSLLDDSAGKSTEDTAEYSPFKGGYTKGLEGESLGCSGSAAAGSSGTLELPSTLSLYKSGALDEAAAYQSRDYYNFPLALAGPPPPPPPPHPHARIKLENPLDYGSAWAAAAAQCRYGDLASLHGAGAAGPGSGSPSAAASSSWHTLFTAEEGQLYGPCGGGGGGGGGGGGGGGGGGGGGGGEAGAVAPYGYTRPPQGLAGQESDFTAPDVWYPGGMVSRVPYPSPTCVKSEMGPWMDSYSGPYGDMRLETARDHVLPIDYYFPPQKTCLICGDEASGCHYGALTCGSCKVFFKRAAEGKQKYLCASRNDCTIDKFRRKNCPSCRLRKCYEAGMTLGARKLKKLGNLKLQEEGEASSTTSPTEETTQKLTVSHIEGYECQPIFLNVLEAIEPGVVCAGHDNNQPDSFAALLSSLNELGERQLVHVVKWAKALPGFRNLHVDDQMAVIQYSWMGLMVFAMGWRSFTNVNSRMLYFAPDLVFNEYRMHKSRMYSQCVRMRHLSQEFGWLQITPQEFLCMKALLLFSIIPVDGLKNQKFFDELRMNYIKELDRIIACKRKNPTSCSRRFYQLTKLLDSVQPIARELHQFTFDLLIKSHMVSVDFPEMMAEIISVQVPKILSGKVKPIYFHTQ
The assay is described as follows: Reporter assay of an androgen receptor responsive sequence (luciferase, transiently transfected HEK293 cells). Type of assay: cell-based. Particulars: 24 hours incubation, relative to activity of 100 nM DHT, read-out: AR transcriptive activity (pEC50) (converted). Put shortly: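 Agonism scored as pEC50, fitted by 4-parameter curve against the response to 100 nM DHT, from dual-luciferase readout after 24 h compound treatment. Cells were HEK293 co-transfected (3 h) with human AR expression vector, androgen-responsive firefly reporter and Renilla control, in charcoal-stripped serum.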
Background: A reporter such as luciferase makes a cellular process visible.

The target of assay [1] is T2, androgen receptor (AR-LBD) (Rattus norvegicus, UniProt P15207).
T2 construct: 5 μL of 2×AR-LBD/Fluoromone AL Red Complex contained in the kit; purchased Invitrogen
T2 sequence (P15207 651-882 limits assumed): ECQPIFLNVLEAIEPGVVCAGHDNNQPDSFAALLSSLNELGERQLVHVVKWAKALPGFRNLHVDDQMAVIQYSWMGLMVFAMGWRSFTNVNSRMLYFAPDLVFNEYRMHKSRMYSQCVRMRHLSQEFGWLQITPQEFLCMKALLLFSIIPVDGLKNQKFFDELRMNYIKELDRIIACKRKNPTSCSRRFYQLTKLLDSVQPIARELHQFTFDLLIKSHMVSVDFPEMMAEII
Put plainly: Evaluation of androgen receptor affinity (PolarScreen Androgen Receptor Competitor Assay Kit, Red; fluorescence polarization). To be noted: 22° C. for 5 hours, relative to binding rate of 1 μM DHT, read-out: AR affinity (pEC50) (converted). Put shortly: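 Duplicate wells of test compound were mixed with the kit's rat AR-LBD–Fluoromone AL Red tracer complex and left 5 hours at 22 °C before polarization was read. A 4-parameter fit gave pEC50, with binding rate referenced to 1 μM dihydrotestosterone.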

For `Cc1sc(N(CC23CC4CC(CC(C4)C2)C3)c2ccc(C#N)cc2)nc1C(=O)NS(C)(=O)=O` [Compound 76, 2-[N-(1-adamantylmethyl)-4-cyano-anilino]-5-methyl-N-methylsulfonyl-thiazole-4-carboxamide], the EC50 is > 10000 nM on human androgen receptor and 50.1 nM in assay [1].
With `Cc1sc(N(Cc2ccc3c(c2)C(O)CC3)c2ccc(C#N)cc2)nc1C(=O)NS(C)(=O)=O` (stereo not shown) [Compound 484, 2-[4-cyano-N-[(3-hydroxyindan-5-yl)methyl]anilino]-5-methyl-N-methylsulfonyl-thiazole-4-carboxamide], the EC50 is 126 nM on human androgen receptor and 158 nM in assay [1].
In the case of `CS(=O)(=O)NC(=O)c1nc(N(Cc2ccc(F)cc2)c2ccc(C#N)cc2)sc1Br` [Example 244, 5-bromo-2-[4-cyano-N-[(4-fluorophenyl)methyl]anilino]-N-methylsulfonyl-thiazole-4-carboxamide], the figures for the EC50 (at human androgen receptor; in assay [1]) were 39.8 nM and 63.1 nM, respectively.
Take `Cc1sc(N(Cc2ccc(Cl)cc2)Cc2csc3cc(C(F)(F)F)ccc23)nc1C(=O)NS(C)(=O)=O` [Compound 677, 2-[(4-chlorophenyl)methyl-[[6-(trifluoromethyl)benzothiophen-3-yl]methyl]amino]-5-methyl-N-methylsulfonyl-thiazole-4-carboxamide]: the values for the EC50 (on human androgen receptor; in assay [1]) were > 10000 nM and > 2000 nM, respectively.
As to `Cc1sc(N(Cc2ccc(Br)cc2F)c2ccc(C#N)cc2)nc1C(=O)NS(C)(=O)=O` [Example 185, 2-[N-[(4-bromo-2-fluoro-phenyl)methyl]-4-cyano-anilino]-5-methyl-N-methylsulfonyl-thiazole-4-carboxamide], the EC50 at human androgen receptor was 63.1 nM; in assay [1] it was 39.8 nM.
Regarding `CCc1oc(N(Cc2cc3ccccc3s2)c2ccc(C#N)cc2)nc1C(=O)NS(C)(=O)=O` [Compound 626, 2-[N-(benzothiophen-2-ylmethyl)-4-cyano-anilino]-5-ethyl-N-methylsulfonyl-oxazole-4-carboxamide], the EC50 at human androgen receptor is 79.4 nM; in assay [1], 15.8 nM.
In the case of `Cc1sc(N(CCCCOc2ccccc2)c2ccc(C#N)cc2)nc1C(=O)NS(C)(=O)=O` [Compound 369, 2-[4-cyano-N-(4-phenoxybutyl)anilino]-5-methyl-N-methylsulfonyl-thiazole-4-carboxamide], the values for the EC50 (on human androgen receptor; in assay [1]) were > 10000 nM and 79.4 nM, respectively.
On the same counts, the results for `COCCCS(=O)(=O)NC(=O)c1nc(N(CCc2ccc(C#N)cc2)Cc2ccc(C(F)(F)F)nc2)oc1C` [Compound 559, 2-[2-(4-cyanophenyl)ethyl-[[6-(trifluoromethyl)-3-pyridyl]methyl]amino]-N-(3-methoxypropylsulfonyl)-5-methyl-oxazole-4-carboxamide] are 7940 nM and 316 nM.
Turning to `COCCCS(=O)(=O)NC(=O)c1nc(N(Cc2ccc(OC(F)F)nc2)c2ccc(C#N)cc2)sc1C` [Compound 525, 2-[4-cyano-N-[[6-(difluoromethoxy)-3-pyridyl]methyl]anilino]-N-(3-methoxypropylsulfonyl)-5-methyl-thiazole-4-carboxamide], the EC50 was 631 nM on human androgen receptor and 50.1 nM in assay [1].
For the compound `Cc1sc(N(Cc2cc(Cl)ccc2F)c2ccc(C#N)cc2)nc1C(=O)NS(C)(=O)=O` [Compound 126, 2-[N-[(5-chloro-2-fluoro-phenyl)methyl]-4-cyano-anilino]-5-methyl-N-methylsulfonyl-thiazole-4-carboxamide], the figures for the EC50 (at human androgen receptor; in assay [1]) were 794 nM and 63.1 nM, respectively.
Take `Cc1oc(N(Cc2nc3ccccc3s2)c2ccc(C#N)cc2)nc1C(=O)NS(C)(=O)=O` [Compound 630, 2-[N-(1,3-benzothiazol-2-ylmethyl)-4-cyano-anilino]-5-methyl-N-methylsulfonyl-oxazole-4-carboxamide]: the results for the EC50 (at human androgen receptor; in assay [1]) were 2510 nM and 158 nM, respectively.
